# Assays:
# Assay type in all cases: cell-based
# [1] = system: TIMP-1 (tissue inhibitor of metalloproteinase 1); experiment: Gene expression of ageing marker TIMP-1 in cultured monolayer fibroblasts after substance treatment and infrared irradiation; settings: for Expression von TIMP-1 (result in words): Fibroblasten, Bestrahlung mit Infrarot-Strahlen, after treatment
# Excerpt: (§1) 1. In vitro Assays hinsichtlich der Expression typischer Altersmarker in kultivierten Fibroblasten nach Substanzgabe und Infrarotbestrahlung
# (§2) Methode: Monolayer-Fibroblasten wurden 24 Stunden vor und 24 Stunden nach Infrarot-Bestrahlung mit Lipochroman (Dimethylmethoxy Chromanol, 0,005 Gew.-%), Taurin (2-Aminoethansulfonsäure 0,005 Gew.-%) und Kombinationen beider Substanzen behandelt. Im Folgenden wurde die Genexpression der zwei Hautalterungsmarker Kollagenase MMP-1, das hinsichtlich der Hautalterung wichtigste Kollagen abbauende Enzym, und des spezifischen Inhibitors der Kollagenase MMP-1, TIMP-1 (tissue inhibitor of metalloproteinase 1), untersucht. Die Genexpressionswerte wurden im Folgenden auf die Werte der jeweiligen unbehandelten Kontrolle relativiert. Als Kontrollen wurden Fibroblasten analysiert, die ausschließlich mit Infrarot bestrahlt wurden.
# [2] = system: Kollagenase MMP-1; experiment: Gene expression of ageing marker MMP-1 in cultured monolayer fibroblasts after substance treatment and infrared irradiation; settings: for Expression der Kollagenase MMP-1 (result in words): Fibroblasten, Infrarot-Strahlen 760-1400 nm, after treatment
# Excerpt: as §1, §2
# [3] = system: MMP1 / TIMP-1; experiment: MMP-1 / TIMP-1 expression ratio (collagen build-up/degradation balance) in fibroblasts after substance treatment and infrared irradiation; settings: Monolayer-Fibroblasten, mit Infrarot A bestrahlt, irradiated-only control 1,2
# Excerpt: as §1
# as §2, with “Methode: Monolayer-Fibroblasten wurden 24 Stunden vor und 24 Stunden nach Infrarot-Bestrahlung mit Lipochroman (Dimethylmethoxy Chromanol, 0,005 Gew.-%), Taurin (2-Aminoethansulfonsäure 0,005 Gew.-%) und Kombinationen beider Substanzen behandelt.” left out
# Entscheidend für die Balance des Auf- und Abbaus von Kollagen in der Dermis ist das Verhältnis zwischen MMP-1 und TIMP-1. Ist dieses Verhältnis größer als der Vergleichswert, so kann von einem vermehrten Abbau durch die Kollagenase ausgegangen werden, ist das Verhältnis kleiner, so wird der Abbau vermehrt verhindert und neues Kollagen kann synthetisiert werden.
SMILES,"fold induction at 0.005 % ([1]; Fibroblast, light or radiation study, Monolayer-Fibroblasten, mit Infrarot A bestrahlt, 0,005 % Lipochroman-6, treated 24 h before and 24 h after irradiation, read-out: TIMP-1 Regulierung mRNA (Gene Expression versus Sham control))",Expression von TIMP-1 (result in words) [1],"fold induction at 0.005 % ([2]; Fibroblast, light or radiation study, Monolayer-Fibroblasten, mit Infrarot A bestrahlt, 0,005 % Lipochroman-6, treated 24 h before and 24 h after irradiation, read-out: MMP-1 Regulierung mRNA (Gene Expression versus Sham control))",Expression der Kollagenase MMP-1 (result in words) [2],"MMP1 / TIMP-1 Ratio ([3]; 0,005 % Lipochroman-6)","fold induction at 0.05 % ([1]; Fibroblast, light or radiation study, Monolayer-Fibroblasten, mit Infrarot A bestrahlt, 0,05 % Taurin, treated 24 h before and 24 h after irradiation, read-out: TIMP-1 Regulierung mRNA (Gene Expression versus Sham control))","fold induction at 0.05 % ([2]; Fibroblast, light or radiation study, Monolayer-Fibroblasten, mit Infrarot A bestrahlt, 0,05 % Taurin, treated 24 h before and 24 h after irradiation, read-out: MMP-1 Regulierung mRNA (Gene Expression versus Sham control))","MMP1 / TIMP-1 Ratio ([3]; 0,05 % Taurin)"
"COc1cc2c(cc1O)CCC(C)(C)O2 [Lipochroman-6, 3,4-Dihydro-7-methoxy-2,2-dimethyl-2H-2 1-benzopyran-6-ol]",1.65,starken Expressionssteigerung,1.75,erhöhten Expressionswerten,"2,7",–,–,–
"NCCS(=O)(=O)O [Taurin, 2-Aminoethansulfonsäure]",–,leichten Steigerung der Expression,–,erhöhten Expressionswerten,–,1.1,2.05,"1,6"
